Reference: US20060228752A1, “Genetic polymorphisms in the preprotachykinin gene” (priority 2002, published 2006)

Assays:
Format in all cases: in vivo, human
[1] = tested on: apomorphine-induced vomiting and retching; assay: Emesis test (apomorphine challenge), Single Ascending Dose study (SAD)
Protocol: (§1) The described emesis test was performed in two studies. A Single Ascending Dose study (SAD) and a Multiple Ascending Dose study (MAD). In the SAD the emesis test was performed 6 and/or 24 hrs after intake of 2-(3,5-bis-trifluoromethyl-phenyl)-N-methyl-N-(6-morpholin-4-yl-4-o-tolyl-pyridin-3-yl)-isobutyramide. In the MAD the emesis test was performed after 14 once daily doses, 6 or 24 hrs after the last dose.
In the SAD on study day 1 doses of 5, 10, 20, 40, 80, 160, 230 and 400 mg 2-(3,5-bis-trifluoromethyl-phenyl)-N-methyl-N-(6-morpholin-4-yl-4-o-tolyl-pyridin-3-yl)-isobutyramide were administered to the subjects orally as a drinking emulsion. At either 6 or 24 hours after the administration of the drug the subjects received a subcutaneous injection of 50 μg/kg of apomorphine in the lower part of the abdomen. The time of apomorphine administration was recorded. The subjects were brought into an upright sitting position immediately after the injection. They remained in this position until vomiting occurred or for at least 1 hour after the apomorphine injection. Vomiting is defined as regurgitation of approximately 25 ml or more of gastric contents. A retch is defined as a regurgitation producing less or no gastric content.
Nausea and/or vomiting was expected to occur on average within 10 minutes after the injection. […] The number of vomits and retches were recorded. […]

[2] = tested on: apomorphine-induced vomiting and retching; assay: Emesis test (apomorphine challenge), Multiple Ascending Dose study (MAD); conditions: 14 once daily doses, test on day 14, 6 or 24 hrs after last dose
Protocol: as §1, with “dose. Subjects were dosed for 14 days with 2-(3,5-bis-trifluoromethyl-phenyl)-N-methyl-N-(6-morpholin-4-yl-4-o-tolyl-pyridin-3-yl)-isobutyramide. On day 14 the test was carried out as described in the SAD.” for “dose.”

[3] = tested on: apomorphine-induced vomiting and retching; assay: Emesis test response by NKNA position 41172 genotype (SAD and MAD participants); conditions: plasma concentration >20 ng/ml; responder = ≦3 retches and vomits
Protocol: FIG. 4: 2×2 Contingency table for 29 position 41172 genotype test results with concentration before emesis test >20 ng/ml 2-(3,5-bis-trifluoromethyl-phenyl)-N-methyl-N-(6-morpholin-4-yl-4-o-tolyl-pyridin-3-yl)-isobutyramide. Effect=yes: number of vomits+retches≦3. Fisher's Exact Test (two-sided): p=0.033. The genotypes of the subjects were classified according to the following categories: 0-2 are allele 2 (nucleotide G) homozygotes (two copies of allele 2, no copies of allele 1); not 0-2 include allelel (nucleotide A) homozygotes 2-0 (two copies of allele 1, no copies of allele 2) and heterozygotes 1-1 (one copy of allele 1 and one copy of allele 2).
Three genetic markers were selected based on the results from polymorphism discovery in the NKNA gene. Samples were genotyped for these single nucleotide polymorphisms by a kinetic PCR method described by Germer et al., Genome Res. (2000), 10, 258-266 with the modification of using single sample for each reaction instead of pooling samples. This method allows discrimination of single nucleotide polymorphisms without the use of fluorescent probes.
All participants of the SAD and MAD were tested for the single nucleotide polymorphism at position 41172 of the NKNA gene as defined by position in FIG. 2.

Compound: Cc1ccccc1-c1cc(N2CCOCC2)ncc1N(C)C(=O)C(C)(C)c1cc(C(F)(F)F)cc(C(F)(F)F)c1 [2-(3,5-bis-trifluoromethyl-phenyl)-N-methyl-N-(6-morpholin-4-yl-4-o-tolyl-pyridin-3-yl)-isobutyramide]
- average number of retches and vomits at the plateau reached with the blockade ([1]; apomorphine 50 μg/kg s.c. 6 or 24 hrs after oral drug): 3
- plasma concentration at which efficacious levels are reached (minimal concentration to achieve efficacy) ([1]; oral drinking emulsion 5-400 mg, apomorphine 50 μg/kg s.c. 6 or 24 hrs after drug, efficacy = plateau of 3 retches and vomits): 20 ng/mL
- emesis test result in MAD [2]: consistent with the SAD
- response to treatment of subjects with G at position 41172 of the NKNA gene versus subjects without it or heterozygous [3]: responding with a higher efficacy
